The test system of assay [1] is PANC-1. Put plainly: Cytotoxicity against human PANC1 cells in nutrient-rich DMEM media by WST8 assay. It is filed as functional, cell-based. In general terms: Formazan colour is commonly taken as a measure of viable cells.
In assay [2] the test system is PANC-1. Put plainly: Cytotoxicity against human PANC1 cells in nutrient-deprived NDM media by WST8 assay. It is filed as functional, cell-based.

This note sets out measurements from ChEMBL document CHEMBL3286374, “Muchimangins G-J, fully substituted xanthones with a diphenylmethyl substituent, from Securidaca longepedunculata” (J Nat Prod, 2014).

Active and inactive are the calls of the source. The calls are words filed in the database; no cut-off is given here.

`COc1cc(OC)c(C(c2ccccc2)c2c(O)c(OC)c3oc4c(O)c(OC)c(OC)c(OC)c4c(=O)c3c2O)cc1OC` (stereo not drawn): the outcome with PANC-1 [1] and in the assay on PANC-1 [2] was inactive.

With `COc1cc(OC)c(C(c2ccccc2)c2c(O)c(OC)c3oc4c(OC)c5c(c(OC)c4c(=O)c3c2O)OCO5)cc1OC` (stereo not drawn), the result in the assay with PANC-1 [1] and in the assay with PANC-1 [2] was inactive.

In the case of `COc1cc(OC)c(C(c2ccccc2)c2c(O)c(OC)c3oc4c(OC)c(O)c(OC)c(O)c4c(=O)c3c2O)cc1OC` (stereo not drawn), the outcome in the assay with PANC-1 [1] and in the assay with PANC-1 [2] was inactive.

`COc1cc(OC)c(C(c2ccccc2)c2c(O)c(OC)c3oc4c(OC)c(OC)c(OC)c(O)c4c(=O)c3c2O)cc1OC` (stereo not drawn): the outcome in the assay with PANC-1 [1] and in the assay with PANC-1 [2] was inactive.
